Measurements: article PMC8037406, “Symbiotic NCR Peptide Fragments Affect the Viability, Morphology and Biofilm Formation of Candida Species” (International Journal of Molecular Sciences, 2021)
≈ marks a conversion by molar mass, not a printed value. Where two headings read alike, the source gives them in different places.

Tests used:
[1] = system: Candida auris 0381; assay: microbe, parasite or virus in culture; format: cell-based; conditions: micro-dilution, YNB medium, 4 × 10^4 cell/mL, 48 h, 30 °C, OD 620 nm, MIC = growth inhibition ≥90%, peptides 25 to 1.56 µM, fluconazole 200 to 0.78 µM, three biological repeats in triplicates; for MIC: Candidozyma auris, 0381, read-out: Minimal inhibitory concentration, Cau 0381; on all read-outs here: key: -: no growth inhibition was observed
Protocol: (§1) The antifungal activity of all the 14 peptides was tested against the following opportunistic human pathogen Candida species and strains: C. albicans strains ATCC 10231, SC 5314 and SZMC 1458, C. auris 0381, C. glabrata CBS 138, C. parapsilosis CBS 604 and C. tropicalis CBS 94.
(§2) All the Candida strains (Table 4) were grown overnight in YPD medium (1% pepton, 1% dextrose, 0.5% yeast extract) at 30 °C in water bath shaker prior to each experiments. The cells were harvested by centrifugation (5 min, 3000× g) washed twice with sterile distilled water and suspended in 5-fold diluted Difco Yeast Nitrogen Base w/o Amino Acids medium (Becton, Dickinson and Company, Sparks, MD, USA) supplemented with 1% dextrose, referred to as YNB medium in the text. Cells were counted in Bürker chamber and diluted to the proper concentration.
(§3) The growth inhibition of the peptides listed in Table 1 was tested in 96-well microtiter plates on Candida strains. The minimal inhibitory concentration (MIC) was determined with the micro-dilution method by adding 5 µL serially two-fold-diluted peptide solution to 95 µL of cell suspension (4 × 10^4 cell/mL) in YNB medium. After 48 h of incubation at 30 °C the optical density of the cultures was measured at 620 nm in SPECTROstar Nano plate reader (BMG LabTech, Offenburg, Germany). Minimal inhibitory concentration was defined as growth inhibition ≥90% compared to 100% growth of the untreated control. The experiments were carried out in three biological repeats always in triplicates.

[2] = system: Candida albicans SZMC 1458; assay: microbe, parasite or virus in culture; format: cell-based; conditions: micro-dilution, YNB medium, 4 × 10^4 cell/mL, 48 h, 30 °C, OD 620 nm, MIC = growth inhibition ≥90%, peptides 25 to 1.56 µM, fluconazole 200 to 0.78 µM, three biological repeats in triplicates; for MIC: Candida albicans, SZMC1458, read-out: Minimal inhibitory concentration, Ca SZMC 1458; on all read-outs here: key: -: no growth inhibition was observed
Protocol: as §1, §2, §3

[3] = system: Candida glabrata CBS 138; assay: microbe, parasite or virus in culture; format: cell-based; conditions: micro-dilution, YNB medium, 4 × 10^4 cell/mL, 48 h, 30 °C, OD 620 nm, MIC = growth inhibition ≥90%, peptides 25 to 1.56 µM, fluconazole 200 to 0.78 µM, three biological repeats in triplicates; for MIC: Nakaseomyces glabratus, CBS138, read-out: Minimal inhibitory concentration, Cg CBS 138; on all read-outs here: key: -: no growth inhibition was observed
Protocol: as §1, §2, §3

[4] = system: Candida albicans SC 5314; assay: microbe, parasite or virus in culture; format: cell-based; conditions: micro-dilution, YNB medium, 4 × 10^4 cell/mL, 48 h, 30 °C, OD 620 nm, MIC = growth inhibition ≥90%, peptides 25 to 1.56 µM, fluconazole 200 to 0.78 µM, three biological repeats in triplicates; for MIC: Candida albicans, SC5314, read-out: Minimal inhibitory concentration, Ca SC 5314; on all read-outs here: key: -: no growth inhibition was observed
Protocol: as §1, §2, §3

[5] = system: Candida parapsilosis CBS 604; assay: microbe, parasite or virus in culture; format: cell-based; conditions: micro-dilution, YNB medium, 4 × 10^4 cell/mL, 48 h, 30 °C, OD 620 nm, MIC = growth inhibition ≥90%, peptides 25 to 1.56 µM, fluconazole 200 to 0.78 µM, three biological repeats in triplicates; for MIC: Lodderomyces parapsilosis, CBS604, read-out: Minimal inhibitory concentration, Cp CBS 604; on all read-outs here: key: -: no growth inhibition was observed
Protocol: as §1, §2, §3

[6] = system: Candida albicans ATCC 10231; assay: microbe, parasite or virus in culture; format: cell-based; conditions: micro-dilution, YNB medium, 4 × 10^4 cell/mL, 48 h, 30 °C, OD 620 nm, MIC = growth inhibition ≥90%, peptides 25 to 1.56 µM, fluconazole 200 to 0.78 µM, three biological repeats in triplicates; for MIC: Candida albicans, ATCC10231, read-out: Minimal inhibitory concentration, Ca ATCC 10231; on all read-outs here: key: -: no growth inhibition was observed
Protocol: as §1, §2, §3

[7] = system: Candida tropicalis CBS 94; assay: microbe, parasite or virus in culture; format: cell-based; conditions: micro-dilution, YNB medium, 4 × 10^4 cell/mL, 48 h, 30 °C, OD 620 nm, MIC = growth inhibition ≥90%, peptides 25 to 1.56 µM, fluconazole 200 to 0.78 µM, three biological repeats in triplicates; for MIC: Candida tropicalis, CBS94, read-out: Minimal inhibitory concentration, Ct CBS 94; on all read-outs here: key: -: no growth inhibition was observed
Protocol: as §1, §2, §3

[8] = system: C. auris; conditions: for FIC: FIC index = FICA + FICB; for FICA / concentration of drug A for the indicated action: checkerboard, 72 h, 30 °C; for FICA: OD 620 nm
Protocol: Amphotericin B, due to its high toxicity was not included in this assay.
The effects of the different combinations of fluconazole and NCR335C17–33, NCR169C17–38 or NCR169C17–38ox were determined by standard checkerboard titration method. The fluconazole was tested in a concentration range from 6.25 to 75 µM, NCR169C17–38 and NCR169C17–38ox from 0.78 to 12.50 µM, NCR335C17–33 from 1.56 to 25 µM. The initial cell concentration in each well was 4 × 10^4 cell/mL. After the incubation for 72 h at 30 °C, the optical density of the cultures was detected at 620 nm in SPECTROstar Nano plate reader (BMG LabTech, Offenburg, Germany). The inhibitory concentrations were determined for each compound alone and in combinations. The experiments were carried out at least three times. The effect of combinations was evaluated by fractional inhibitory concentration (FIC) index. FIC = FICA + FICB. FICA = (MICA in combination)/(MICA alone); FICB = (MICB in combination)/(MICB alone)

[9] = fluconazole + NCR169C17–38, C. auris
[10] = fluconazole + NCR169C17–38ox, C. auris
[11] = C. auris, drug A fluconazole + drug B NCR169C17–38
[12] = C. auris, drug A fluconazole + drug B NCR335C17–33

`C[C@@H]1[C@H](O)[C@@H](C)/C=C/C=C/C=C/C=C/C=C/C=C/C=C/[C@H](O[C@@H]2O[C@H](C)[C@@H](O)[C@H](N)[C@@H]2O)C[C@@H]2O[C@](O)(C[C@@H](O)C[C@@H](O)[C@H](O)CC[C@@H](O)C[C@@H](O)CC(=O)O[C@H]1C)C[C@H](O)[C@H]2C(=O)O` [Amphotericin B, amphotericin B, reference compound] was tested, and the MIC [1] was 6.25 µM (≈ 5.78 µg/mL), the MIC [2] was 3.12 µM (≈ 2.88 µg/mL) and the MIC [3] was 1.56 µM (≈ 1.44 µg/mL). For the same compound, the MIC [4] was 3.12 µM (≈ 2.88 µg/mL), the MIC [5] was 3.12 µM (≈ 2.88 µg/mL) and the MIC [6] was 3.12 µM (≈ 2.88 µg/mL). It also gave an MIC [7] of 6.25 µM (≈ 5.78 µg/mL).
Compound `OC(Cn1cncn1)(Cn1cncn1)c1ccc(F)cc1F` [Fluconazole, fluconazole, reference compound] has an MIC [1] of 25 µM (≈ 7.66 µg/mL), an MIC [2] of 1.56 µM (≈ 0.478 µg/mL) and an MIC [3] of 200 µM (≈ 61.3 µg/mL). For the same compound, the MIC [4] was 12.5 µM (≈ 3.83 µg/mL), the MIC [5] was 6.25 µM (≈ 1.91 µg/mL) and the MIC [6] was 200 µM (≈ 61.3 µg/mL). It also gave an MIC [7] of 100 µM (≈ 30.6 µg/mL), an FIC [8, 9] of 0.625 and an FIC [8, 10] of 0.5. The FIC ([8]; fluconazole + NCR335C17–33, C. auris, * fictitious value, could be lower) was ≤ 1.125 *, the FICA [8, 11] was 0.5 and the FICA [8, 12] was 1. For the same compound, the “concentration of drug A for the indicated action” value [8, 11] was 12.50 µM, the “concentration of drug A for the indicated action” value ([8]; C. auris, drug A fluconazole + drug B NCR169C17–38ox) was 6.25 µM and the “concentration of drug A for the indicated action” value [8, 12] was 25 µM. The Action [8, 9] was “Additive”, the Action [8, 10] was “Synergism” and the “reduction of MIC in the synergistic combination” value ([8]; fluconazole + NCR169C17–38ox, C. auris, compared with single use) was 4 ×. For the same compound, the Action ([8]; fluconazole + NCR335C17–33, C. auris) was “Indifferent”.
“CKTNKDCP [NCR335C9–16, NCR335C fragment 9–16]” was tested, and the “Minimal inhibitory concentration, Cau 0381” value [1] was “-”, the “Minimal inhibitory concentration, Ca SZMC 1458” value [2] was “-” and the “Minimal inhibitory concentration, Cg CBS 138” value [3] was “-”. The “Minimal inhibitory concentration, Ca SC 5314” value [4] was “-”, the “Minimal inhibitory concentration, Cp CBS 604” value [5] was “-” and the “Minimal inhibitory concentration, Ca ATCC 10231” value [6] was “-”. The “Minimal inhibitory concentration, Ct CBS 94” value [7] was “-”.
“FWGQNRNIMKHRGQ [NCR335N16–29, NCR335 N-terminal fragment, amino acids 16–29]” was tested, and the “Minimal inhibitory concentration, Cau 0381” value [1] was “-”, the “Minimal inhibitory concentration, Ca SZMC 1458” value [2] was “-” and the “Minimal inhibitory concentration, Cg CBS 138” value [3] was “-”. For the same compound, the “Minimal inhibitory concentration, Ca SC 5314” value [4] was “-”, the “Minimal inhibitory concentration, Cp CBS 604” value [5] was “-” and the “Minimal inhibitory concentration, Ca ATCC 10231” value [6] was “-”. For the same compound, the “Minimal inhibitory concentration, Ct CBS 94” value [7] was “-”.
“HFSLILSD [NCR335C1–8, NCR335C fragment 1–8]” was tested, and the “Minimal inhibitory concentration, Cau 0381” value [1] was “-”, the “Minimal inhibitory concentration, Ca SZMC 1458” value [2] was “-” and the “Minimal inhibitory concentration, Cg CBS 138” value [3] was “-”. For the same compound, the “Minimal inhibitory concentration, Ca SC 5314” value [4] was “-”, the “Minimal inhibitory concentration, Cp CBS 604” value [5] was “-” and the “Minimal inhibitory concentration, Ca ATCC 10231” value [6] was “-”. For the same compound, the “Minimal inhibitory concentration, Ct CBS 94” value [7] was “-”.
For “HFSLILSDCKTNKDCP [NCR335C1–16, NCR335C fragment 1–16]”, the “Minimal inhibitory concentration, Cau 0381” value [1] was “-”, the “Minimal inhibitory concentration, Ca SZMC 1458” value [2] was “-” and the “Minimal inhibitory concentration, Cg CBS 138” value [3] was “-”. For the same compound, the “Minimal inhibitory concentration, Ca SC 5314” value [4] was “-”, the “Minimal inhibitory concentration, Cp CBS 604” value [5] was “-” and the “Minimal inhibitory concentration, Ca ATCC 10231” value [6] was “-”. The “Minimal inhibitory concentration, Ct CBS 94” value [7] was “-”.
In the case of “KLRRANVRCRK [NCR335C17–27, NCR335C fragment 17–27]”, the “Minimal inhibitory concentration, Cau 0381” value [1] is reported as “-”, the “Minimal inhibitory concentration, Ca SZMC 1458” value [2] is reported as “-” and the “Minimal inhibitory concentration, Cg CBS 138” value [3] is reported as “-”. The “Minimal inhibitory concentration, Ca SC 5314” value [4] was “-”, the “Minimal inhibitory concentration, Cp CBS 604” value [5] was “-” and the “Minimal inhibitory concentration, Ca ATCC 10231” value [6] was “-”. The “Minimal inhibitory concentration, Ct CBS 94” value [7] was “-”.
“RLNTTFRPLNFKMLR [NCR335N1–15, NCR335 N-terminal fragment, amino acids 1–15]” was tested, and the “Minimal inhibitory concentration, Cau 0381” value [1] was “-”, the “Minimal inhibitory concentration, Ca SZMC 1458” value [2] was “-” and the “Minimal inhibitory concentration, Cg CBS 138” value [3] was “-”. For the same compound, the “Minimal inhibitory concentration, Ca SC 5314” value [4] was “-”, the “Minimal inhibitory concentration, Cp CBS 604” value [5] was “-” and the “Minimal inhibitory concentration, Ca ATCC 10231” value [6] was “-”. The “Minimal inhibitory concentration, Ct CBS 94” value [7] was “-”.
